Measured values from DBAASP.
≈ marks a conversion by molar mass, not a printed value. One block for each molecule: values may come before it.

What was measured:
Assay in all cases: ≥ marks a high value that may be exact or a test limit, other limits are often not marked, values filed in µg/mL are converted to µM
[1] = test system: Trichoderma asperellum
[2] = test system: Xanthomonas campestris pv. citri
[3] = test system: Fusarium oxysporum f.sp. vasinfectum
[4] = test system: Fusarium oxysporum
[5] = test system: Ramulariopsis gossypii
[6] = test system: Pseudomonas syringae pv. tabaci
[7] = test system: Bacillus subtilis ATCC 23857
[8] = test system: Pectobacterium carotovorum
[9] = test system: Candida albicans ATCC 90028
[10] = test system: Escherichia coli ATCC 25922
[11] = test system: Cryptococcus neoformans ATCC 28957
[12] = test system: Staphylococcus aureus NCTC 12493
[13] = test system: Pseudomonas aeruginosa PAO1
[14] = test system: Salmonella typhimurium SL1344
[15] = test system: Pseudomonas aeruginosa Q14-0208
[16] = test system: Acinetobacter baumannii Q13-0717
[17] = test system: Acinetobacter baumannii ATCC 19606
[18] = test system: Campylobacter jejuni NCTC 11351
[19] = test system: Klebsiella pneumoniae Q14-0285
[20] = test system: Pseudomonas aeruginosa ATCC 27853
[21] = test system: Campylobacter jejuni ATCC 33292
[22] = test system: Staphylococcus aureus RN4220
[23] = test system: Escherichia coli
[24] = test system: Pseudomonas aeruginosa Q12-0535
[25] = test system: Klebsiella pneumoniae NCTC 13442
[26] = test system: Escherichia coli K-12
[27] = test system: Listeria monocytogenes NCTC 11994
[28] = test system: Staphylococcus aureus ATCC 33591
[29] = test system: Staphylococcus aureus MRSA-15
[30] = test system: Enterococcus faecalis JH-2-2
[31] = test system: Staphylococcus aureus USA 300
[32] = test system: Klebsiella pneumoniae Q14-0095
[33] = test system: Staphylococcus aureus ATCC 6538
[34] = test system: Pseudomonas aeruginosa Q14-0890
[35] = test system: Campylobacter jejuni
[36] = test system: Campylobacter jejuni NCTC 11161
[37] = test system: Klebsiella pneumoniae ATCC 700603
[38] = test system: Candida glabrata 09050201
[39] = test system: Candida albicans 08030102
[40] = test system: Candida albicans 08030809
[41] = test system: Candida glabrata 08A802
[42] = test system: Stenotrophomonas maltophilia
[43] = test system: Bacillus cereus
[44] = test system: Klebsiella oxytoca
[45] = test system: Shigella sp.
[46] = test system: Staphylococcus aureus ATCC 25923
[47] = test system: Klebsiella pneumoniae 1400
[48] = test system: Staphylococcus aureus 08032810
[49] = test system: Salmonella enterica subsp. enterica serovar Paratyphi A
[50] = test system: Staphylococcus aureus 08032712
[51] = test system: Pseudomonas aeruginosa 08031014
[52] = test system: Enterococcus faecalis 981
[53] = test system: Candida albicans 08030401
[54] = test system: Staphylococcus epidermidis
[55] = test system: Candida albicans 08022710
[56] = test system: Nocardia asteroides
[57] = test system: Enterococcus faecium 1299
[58] = test system: Staphylococcus aureus 08032706

MIC [1]: ≥ 128 µM | MIC [2]: ≥ 32 µM | MIC [3]: ≥ 64 µM | MIC [4]: ≥ 256 µM | MIC [5]: 16 µM (≈ 31.9 µg/mL) | MIC [6]: 8 µM (≈ 16 µg/mL) | MIC [7]: 8 µM (≈ 16 µg/mL) | MIC [8]: ≥ 32 µM | MIC [9]: ≥ 128 µM | MIC [10]: 16 µM (≈ 31.9 µg/mL) | MIC [11]: ≥ 64 µM
Compound: CC(C)C[C@H](NC(=O)[C@H](C)NC(=O)[C@H](CCCN=C(N)N)NC(=O)[C@@H](NC(=O)[C@H](CCC(N)=O)NC(=O)[C@H](CCCCN)NC(=O)[C@H](CCCCN)NC(=O)[C@H](C)NC(=O)[C@H](CC(C)C)NC(=O)[C@H](CCCCN)NC(=O)[C@H](C)NC(=O)CN)C(C)C)C(=O)NCC(=O)N[C@@H](CCCCN)C(=O)N[C@@H](Cc1ccccc1)C(=O)N[C@@H](Cc1ccccc1)C(=O)N[C@@H](CO)C(=O)N[C@@H](Cc1ccccc1)C(N)=O [GAKLAKKQVRALGKFFSF]

MIC [12]: 6.66 µM (≈ 16 µg/mL) | MIC [13]: 13.3 µM (≈ 32 µg/mL) | MIC [14]: 13.3 µM (≈ 32 µg/mL) | MIC [15]: 6.66 µM (≈ 16 µg/mL) | MIC [16]: 1.67 µM (≈ 4 µg/mL) | MIC [17]: 9.42 µM (≈ 22.6 µg/mL) | MIC [18]: 26.7 µM (≈ 64 µg/mL) | MIC [19]: 6.66 µM (≈ 16 µg/mL) | MIC [20]: 26.7 µM (≈ 64 µg/mL) | MIC [21]: 1.67 µM (≈ 4 µg/mL) | MIC [22]: 13.3 µM (≈ 32 µg/mL) | MIC [23]: 26.7 µM (≈ 64 µg/mL) | MIC [24]: 26.7 µM (≈ 64 µg/mL) | MIC [25]: 6.66 µM (≈ 16 µg/mL) | MIC [26]: 13.3 µM (≈ 32 µg/mL) | MIC [27]: 13.3 µM (≈ 32 µg/mL) | MIC [28]: 6.66 µM (≈ 16 µg/mL) | MIC [29]: 13.3 µM (≈ 32 µg/mL) | MIC [30]: 13.3 µM (≈ 32 µg/mL) | MIC [31]: 3.33 µM (≈ 8 µg/mL) | MIC [32]: 13.3 µM (≈ 32 µg/mL) | MIC [33]: 13.3 µM (≈ 32 µg/mL) | MIC [34]: 13.3 µM (≈ 32 µg/mL) | MIC [35]: 26.7 µM (≈ 64 µg/mL) | MIC [36]: 1.67 µM (≈ 4 µg/mL) | MIC [37]: 6.66 µM (≈ 16 µg/mL)
Compound: CC[C@H](C)[C@H](NC(=O)[C@H](CCCCN)NC(=O)[C@H](CO)NC(=O)[C@H](Cc1c[nH]c2ccccc12)NC(=O)[C@H](CCCN=C(N)N)NC(=O)[C@H](CC(N)=O)NC(=O)[C@H](CCCN=C(N)N)NC(=O)[C@H](CCCN=C(N)N)NC(=O)[C@@H]1CCCN1C(=O)[C@@H](N)CC(C)C)C(=O)N[C@@H](Cc1c[nH]c2ccccc12)C(=O)N[C@@H](CCCCN)C(=O)N[C@@H](CCCCN)C(=O)N[C@H](C(=O)N[C@H](C(=O)N[C@H](C(=O)N[C@H](C(=O)N[C@@H](Cc1ccccc1)C(=O)N[C@@H](CO)C(=O)O)C(C)C)[C@@H](C)O)C(C)C)C(C)C [LPRRNRWSKIWKKVVTVFS]

MIC [38]: 5.37 µM (≈ 18.8 µg/mL) | MIC [39]: 5.37 µM (≈ 18.8 µg/mL) | MIC [40]: 5.37 µM (≈ 18.8 µg/mL) | MIC [41]: 2.69 µM (≈ 9.38 µg/mL) | MIC [42]: 5.37 µM (≈ 18.8 µg/mL) | MIC [43]: 2.69 µM (≈ 9.38 µg/mL) | MIC [20]: 5.37 µM (≈ 18.8 µg/mL) | MIC [44]: 5.37 µM (≈ 18.8 µg/mL) | MIC [23]: 5.37 µM (≈ 18.8 µg/mL) | MIC [45]: 1.34 µM (≈ 4.69 µg/mL) | MIC [46]: 5.37 µM (≈ 18.8 µg/mL) | MIC [47]: 7.49 µM (≈ 26.2 µg/mL) | MIC [48]: 5.37 µM (≈ 18.8 µg/mL) | MIC [49]: 10.7 µM (≈ 37.5 µg/mL) | MIC [50]: 5.37 µM (≈ 18.8 µg/mL) | MIC [51]: 2.69 µM (≈ 9.38 µg/mL) | MIC [52]: 10.7 µM (≈ 37.5 µg/mL) | MIC [53]: 2.69 µM (≈ 9.38 µg/mL) | MIC [54]: 5.37 µM (≈ 18.8 µg/mL) | MIC [55]: 5.37 µM (≈ 18.8 µg/mL) | MIC [56]: 2.69 µM (≈ 9.38 µg/mL) | MIC [10]: 5.37 µM (≈ 18.8 µg/mL) | MIC [57]: 5.37 µM (≈ 18.8 µg/mL) | MIC [58]: 5.37 µM (≈ 18.8 µg/mL)
Compound: CC[C@H](C)[C@H](NC(=O)[C@H](CCCN=C(N)N)NC(=O)[C@H](Cc1c[nH]c2ccccc12)NC(=O)CNC(=O)[C@H](Cc1ccc(O)cc1)NC(=O)[C@H](CCCN=C(N)N)NC(=O)[C@H](CCCN=C(N)N)NC(=O)[C@H](C)NC(=O)[C@H](Cc1ccccc1)NC(=O)[C@H](CCCN=C(N)N)NC(=O)CNC(=O)[C@H](C)NC(=O)CNC(=O)[C@H](CCCN=C(N)N)NC(=O)[C@@H](NC(=O)[C@H](Cc1ccccc1)NC(=O)[C@H](CCCN=C(N)N)NC(=O)[C@H](CCCN=C(N)N)NC(=O)[C@H](Cc1c[nH]c2ccccc12)NC(=O)[C@H](CCCN=C(N)N)NC(=O)[C@H](CO)NC(=O)[C@H](CCCN=C(N)N)NC(=O)[C@@H](N)[C@@H](C)O)[C@@H](C)CC)C(=O)N[C@@H](C)C(=O)N[C@@H](CC(C)C)C(=O)NCC(=O)N[C@@H](CC(C)C)C(=O)N[C@H](C(=O)NCC(=O)O)C(C)C [TRSRWRRFIRGAGRFARRYGWRIALGLVG]
